Values joined by “and” are separate entries in the source; they are usually repeats but may differ in a detail not shown here. Identical values can stand only once.
Columns and labels:
[1] = Oral and intracolonic heparin delivery in rats, APTT; type: in vivo, Sprague-Dawley rats
Procedure: (§1) Oral gavage (PO) and/or intracolonic (IC) dosing solutions containing a delivery agent compound and heparin sodium USP in 25% aqueous propylene glycol were prepared. The sodium salt of the compound was used. Typically, delivery agent compound and heparin (about 166-182 IU/mg) were mixed by vortex as dry powders. This dry mixture was dissolved in 25% v/v aqueous propylene glycol, vortexed and placed in a sonicator (about 37° C.). The pH was adjusted to about 7 (6.5 to 8.5) with aqueous NaOH (2N). The dosing solution was sonicated to produce a clear solution. The final volume was adjusted to 3.0 mL. The final delivery agent compound dose, heparin dose and volume dose amounts are listed below in Table 6.
(§2) The typical dosing and sampling protocols were as follows. Male Sprague-Dawley rats weighing between 275-350 g were fasted for 24 hours and were anesthetized with ketamine hydrochloride (88 mg/kg) intramuscularly immediately prior to dosing. A dosing group of five rats was administered one of the dosing solutions. […] Solution was administered by pressing the syringe plunger. […] The dosing catheter was inserted into the colon through the anus until the tube was no longer visible. The dosing solution was injected slowly into the colon.
Citrated blood samples were collected by cardiac puncture following the administration of ketamine (88 mg/kg), typically at time—0.25, 0.5, 1.0 and 1.5 hours. Heparin activity was determined by utilizing the activated partial thromboplastin time (APTT) according to the method of Henry, J. B., Clinical Diagnosis and Management by Laboratory Methods, Philadelphia, Pa., W.B. Saunders (1979). Previous studied indicated baseline values of about 20 sec. Results from the five rats in each group were averaged for each time point. The maximum is reported below in Table 6.

[2] = Intracolonic heparin delivery in rats, antifactor Xa; type: in vivo, Sprague-Dawley rats; details: IC, volume 1 ml/kg, heparin dose 25 mg/kg
Procedure: as §1, §2

[3] = Human recombinant insulin oral/intracolonic delivery in rats, serum insulin Cmax; type: in vivo, Sprague-Dawley rats
Procedure: (§3) Insulin (human recombinant) was obtained from ICN Biomedicals (Aurora, Ohio) as a bulk powder. To prepare stock solutions, insulin was dissolved in deionized water (pH˜6.5) to obtain a concentration of 15 mg/ml. Stock solutions were kept frozen at −20° C. in 1.0-ml aliquots until used. For dosing solutions, the delivery agent compound was dissolved in deionized water to obtain a final concentration of 200 mg/ml. The free acid form of delivery agent was converted to the sodium salt by adding one equivalent of sodium hydroxide. Solutions were vortexed, sonicated, and heated, and if necessary, additional sodium hydroxide was added in μl quantities to achieve uniform solubility. Solutions were adjusted to a pH of 3.5-8.5 by the addition of either hydrochloric acid or sodium hydroxide. Insulin stock (typically 66.7 μl) was then added to the delivery agent solution to obtain a final concentration of 0.5 mg/ml. After solubilization and drug addition, solutions were brought to final volume by the addition of deionized water.
(§4) Insulin was administered to male, Sprague-Dawley rats either alone or in combination with an Emisphere delivery agent by oral gavage (PO). Typically, rats were fasted for 18-24 hours prior to dosing. For dosing, a Rusch 8 French catheter was cut to 11 cm in length and adapted to fit a 1-ml syringe. The syringe was filled with dosing solution and the catheter was wiped dry of excess solution. The catheter was inserted into the rat mouth and fed down the esophagus (10.0 cm). The dosing solution was delivered by pressing the syringe plunger while holding the rat in an upright position.
During blood sampling, rats were exposed briefly (˜10 sec) to carbon dioxide until prostrate, immediately prior to each sampling time point. For blood sampling, a 77-mm capillary tube was inserted into the retroorbital sinus. Typically, blood samples were collected prior to dosing (time 0) and at 15, 30, 45, and 60 minutes after dosing. Samples were collected into CAPIJECT® tubes (Terumo Corporation, Tokyo, Japan) containing a clot activator (red top, serum separator tubes). Samples were allowed to clot for ˜20 min at 4° C. After clotting, samples were centrifuged at 10,000 rpm for 4 minutes at 6° C. in order to separate the serum. Serum was collected into eppendorf tubes and frozen at −20° C. until assayed.

[4] = Human recombinant insulin oral delivery in rats, whole blood glucose; type: in vivo, Sprague-Dawley rats; details: oral (liquid dose), delivery agent compound dose 200 mg/kg, insulin dose 0.5 mg/kg
Procedure: as §3, §4
In order to determine the pharmacodynamic response, a hand-held glucometer (OneTouch Ultra, LifeScan® (Johnson & Johnson, New Brunswick, N.J.)) was used to measure whole blood glucose after administration of insulin or insulin and delivery agent. Samples were collected either from the retroorbital sinus (see Sample collection and handling: Insulin) or from the tail artery (i.e. tail clip). For tail clipping, the tip of the tail was severed approximately 5 mm from the tip using a scalpel blade. After discarding the first drop of blood, a small sample (˜5-10 μl) was touched to the glucometer test strip (OneTouch Ultra, LifeScan) and a blood glucose reading was generated by the meter. For each subsequent sampling time point, the clot formed at the tip of the tail was broken up and a fresh sample was collected. Typically, samples were collected prior to dosing (time 0) and at 15, 30, 45, and 60 minutes after dosing.

[5] = Human zinc insulin oral delivery in rats, blood glucose % change; type: in vivo, Sprague-Dawley rats; details: delivery agent compound dose 200 mg/kg, human zinc insulin dose 0.5 mg/kg
[6] = PYY[3-36] liquid oral delivery in rats, serum PYY by radioimmunoassay; design: species or system Sprague-Dawley rats; details: rat, in vivo
Procedure: Oral gavage (PO) dosing solutions of delivery agent compound and Peptide YY residues 3-36 (PYY[3-36]) (available from Bachem California Inc. of Torrance, Calif.) in deionized water were prepared as follows.
PYY [3-36] stock solution (80 mg/ml) was prepared with deionized water. Oral dosing compositions containing 200 mg/kg of delivery agent compound and 0.3 mg/kg of PYY in aqueous solution were prepared. A solution of the compound 23 is made with one equivalent to sodium hydroxide to convert the free acid delivery agent to its sodium salt.
Male Sprague-Dawley rats weighing between 240-320 g were fasted up to a maximum 24 hours before the experiments and administered ketamine (44 mg/kg) and thorazine (1.5 mg/kg) by intramuscular injection before the test article administration. Afterwards, the anesthetized animals were administered the test article by oral gavage.
Blood samples were collected serially from the tail artery, or by cardiac puncture, typically at time=0, 15, 30, 45, 60 and 90 minutes. Serum PYY concentrations were quantified using a PYY[3-36] radioimmunoassay (Catalog #RK-059-02 from Phoenix Pharmaceuticals, Inc., Belmont, Calif.). Results from the animals in each group were averaged for each time point. The maximum of these averages (i.e., the mean peak serum PYY[3-36] concentration ±standard deviation (SD)) is reported below in Table 2.

[7] = oral (liquid dose), delivery agent compound dose 100 mg/kg, insulin dose 1 mg/kg
[8] = IC, volume 1 ml/kg, compound dose 50 mg/kg, heparin dose 25 mg/kg

CC(CC(=O)O)NC(=O)c1cc(C(C)C)cc(C(C)C)c1O (centres unmarked) [Compound 151, 3-(2-hydroxy-3,5-diisopropyl-benzoylamino)-butyric acid]
Mean Peak APTT (sec) ± SD ([1]; PO, volume 3 ml/kg, compound dose 300 mg/kg, heparin dose 100 mg/kg): 252.09 ± 107.13 s | antifactor Xa (mean peak ± SD) ([2]; compound dose 25 mg/kg): 3.39 ± 3.07 | antifactor Xa (mean peak ± SD) ([2]; compound dose 50 mg/kg): 2.36 ± 1.27

CC(CC(=O)O)NC(=O)c1cc(Br)cc(Br)c1O (centres unmarked) [Compound 141, 3-(3,5-Dibromo-2-hydroxy-benzoylamino)-butyric acid]
Cmax [3, 7]: Cmax = 204.05 ± 60.88 μIU/mL | Mean Peak APTT (sec) ± SD [1, 8]: 52.40 ± 21.54 s

COc1ccc(C(=O)CCCC(=O)O)cc1 [Compound 116, 5-(4-Methoxy-phenyl)-5-oxo-pentanoic acid]
melting point: 141 to 142 °C

CN(C(=O)CCC(=O)O)c1ccc(Cl)cc1 [Compound 29]
Maximum % drop in glucose from control ± SD [4]: −29.25 ± 6.97%

CC(CC(=O)O)CC(=O)N(c1ccccc1)C(C)C (centres unmarked) [Compound 25]
Maximum % drop in glucose from control ± SD [4]: −14.81 ± 12.99%

CC(C)N(C(=O)CCCCCC(=O)O)c1ccccc1 [Compound 23, 7-[isopropyl(phenyl)amino]-7-oxoheptanoic acid]
melting point: 62 to 63 °C

COc1ccc(OCCCC(=O)O)c(C(=O)c2ccccc2O)c1 [Compound 165]
Maximum % drop in glucose from control ± SD [4]: −33.0%

COc1ccc(C(=O)O)cc1OCc1ccccc1 [Compound 153]
Glucose (% control) [5]: −7.1%

O=C(O)CCCCCCCCC(=O)c1ccccc1O [Compound 114, 10-(2-Hydroxy-phenyl)-10-oxo-decanoic acid]
Mean Peak APTT (sec) ± SD [1, 8]: 42.90 ± 8.70 s | melting point: 85 to 87 °C

Cc1cc(C(=O)O)cc(C)c1OCc1ccccc1 [Compound 154]
Glucose (% control) [5]: −7.9%

O=C(O)CCCOc1ccccc1C(=O)c1ccccc1O [Compound 166, 4-(2-(2-Hydroxybenzoyl)phenoxy)butyric acid]
Maximum % drop in glucose from control ± SD [4]: −5.7%

CC(C)N(C(=O)CCCCC(=O)O)c1ccccc1 [Compound 24]
Maximum % drop in glucose from control ± SD [4]: −14.73 ± 17.64%

CN(C(=O)CCCCCC(=O)O)c1ccccc1 [Compound 27]
Maximum % drop in glucose from control ± SD [4]: −25.40 ± 30.61%

CC(CC(=O)O)NC(=O)c1ccc(Cl)cc1O (centres unmarked) [Compound 145, 3-(4-Chloro-2-hydroxy-benzoylamino)-butyric acid]
Cmax ([3]; intracolonic, delivery agent compound dose 50 mg/kg, insulin dose 0.1 mg/kg): Cmax = 15.03 ± 7.80 μIU/mL | Cmax [3, 7]: Cmax = 3.92 ± 5.62 μIU/mL | Mean Peak APTT (sec) ± SD [1, 8]: 134.42 ± 99.03 s

Cc1ccc(OCCCC(=O)O)c(C(=O)c2ccccc2Cl)c1 [Compound 167, 4-(2-Chlorobenzoyl-4-methylphenoxy)butyric acid]
Maximum % drop in glucose from control ± SD [4]: −21.2% and −17.7% and −26.2% and −17.8% and −22.7%

PYY[3-36]: Peptide YY residues 3-36, available from Bachem California Inc.; the active agent, dosed alone
PYY[3-36] detected in blood [6]: No significant PYY[3-36] was detected

CC(CC(=O)O)NC(=O)c1cc(I)cc(I)c1O (centres unmarked) [Compound 143, 3-(2-Hydroxy-3,5-diiodo-benzoylamino)-butyric acid]
Mean Peak APTT (sec) ± SD [1, 8]: 114.69 ± 121.62 s

CC(CC(=O)O)NC(=O)c1cc(Cl)cc(Cl)c1O (centres unmarked) [Compound 142, 3-(3,5-Dichloro-2-hydroxy-benzoylamino)-butyric acid]
Cmax [3, 7]: Cmax = 118.16 ± 72.75 μIU/mL

O=C(O)Cc1ccccc1OCc1ccccc1 [Compound 152]
Glucose (% control) [5]: −29.3%

O=C(O)Cc1ccc(OCc2ccccc2)cc1 [Compound 158]
melting point: 110 to 112 °C

CC(CC(=O)O)NC(=O)c1ccccc1O (centres unmarked) [Compound 140, 3-(2-Hydroxy-benzoylamino)-butyric acid]
Cmax [3, 7]: Cmax = 81.16 ± 114.98 μIU/mL | Mean Peak APTT (sec) ± SD [1, 8]: 23.49 ± 6.12 s

O=C(O)CCCCOc1ccc(OCc2ccccc2)cc1 [Compound 178, 5-(4-Benzyloxy-phenoxy)-pentanoic acid]
melting point: 127 to 128 °C

CC(CC(=O)O)CC(=O)N(C)c1ccccc1 (centres unmarked) [Compound 28]
Maximum % drop in glucose from control ± SD [4]: −11.41 ± 18.92%

CCN(C(=O)CC(C)CC(=O)O)c1ccccc1 (centres unmarked) [Compound 26]
Maximum % drop in glucose from control ± SD [4]: −25.93 ± 14.86%

O=C(O)CCCCCCCCCCOc1ccccc1OCc1ccccc1 [Compound 177, 11-(2-Benzyloxyphenoxy)undecanoic acid]
melting point: 62 to 63 °C

O=C(O)CCCCCOc1ccccc1C(=O)c1ccccc1O [Compound 160, 6-(2-(2-Hydroxybenzoyl)phenoxy)hexanoic acid]
Cmax ([3]; oral (liquid dose), delivery agent compound dose 200 mg/kg, insulin dose 0.5 mg/kg): Cmax = 74 ± 7.5 μIU/mL | Mean Peak APTT (sec) ± SD [1, 8]: 131 ± 154 s | melting point: 67 to 70 °C

Source: US8273794B2, “Compounds and compositions for delivering active agents” (Emisphere Technologies, Inc., priority 2004, dated 2012)
